{
  "source": "patent US10426757B2",
  "about": "“Compositions and methods for promoting intestinal stem cell and/or non-stem progenitor cell function” (Whitehead Institute for Biomedical Research, priority 2014, dated 2019)",
  "type_in_all_cases": "in vivo, mouse",
  "key": {"[1]": {"tested_on": "PPAR-δ target genes", "assay": "PPAR-δ target gene and protein expression in flow sorted ISCs and progenitors (qRT-PCR, immunoblot, RNA-seq)", "details": "GW501516 for 4 weeks, protein level", "excerpt": "Antibodies: rabbit polyclonal anti-PPAR-δ (1:100, Thermo PA1-823A), rabbit polyclonal anti-Cpt1a (1:250, ProteinTech 15184-1-AP), rabbit polyclonal anti-HMGCS2 (1:500, Sigma AV41562), rabbit monoclonal anti-FABP1 (1:1000, Abcam ab129203), rabbit polyclonal anti-γ-tubulin (1:1000, Sigma T5192). Lgr5-GFP^hi ISCs or GFP^low progenitors were sorted directly into sample buffer and boiled for five minutes. Samples were resolved by SDS-PAGE and analyzed by immunoblotting with goat anti-rabbit IgG-HRP secondary antibodies (1:10,000, Santa Cruz Biotechnology sc-2054) and Western Lightning Plus-ECL detection kit (Perkin Elmer, NEL 104001EA).\nCells were sorted into Tri Reagent (Life Technologies) and total RNA was isolated according to the manufacturer's instructions with following modification: the aqueous phase containing total RNA was purified using RNeasy plus kit (Qiagen). RNA was converted to eDNA with cDNA synthesis kit (Bio-Rad). qRT-PCR was performed with SYBR green master mix (Bio-Rad) on Bio-Rad iCycler RT-PCR detection system. Primers used are listed on Table 4 below.\nRNA Isolation. […] From the total RNA, poly(A)^+ RNA was selected using Oligo(dT)25-Dynabeads (Life technologies) according to the manufacturer's protocol."}, "[2]": {"tested_on": "crypt base columnar cells and transit-amplifying cells", "assay": "BrdU incorporation into ISCs and TA-cells", "details": "GW501516-treated mice, 4 hours after BrdU pulse", "protocol": "Mice were housed in the Unit for Laboratory Animal Medicine at the Whitehead Institute for Biomedical Research and Koch Institute for Integrative Cancer Research. Lgr5-EGFP-IRES-CreERT2 mice (strain name: […] B6.129S4-Gt(ROSA)26Sor^tm1Sor/J, stock number 003474) were obtained from the Jackson Laboratory. […] Control mice were age-matched and fed normal chow ad libitum. GW501516 (Enzo) was reconstituted in DMSO at 4.5 mg ml^-1 and diluted 1:10 in a solution of 5% PEG400 (Hampton Research), 5% Tween80 (Sigma), 90% H2O for a daily intraperitoneal injection of 4 mg/kg. Apc exon 14 was excised by tamoxifen suspended in sunflower seed oil (Spectrum […]) at a concentration of 10 mg ml^-1, and 250 μl per 25 g of body weight was administered by intraperitoneal injection to mice twice over 4 days before harvesting tissue. BrdU was prepared at 10 mg ml^-1 in PBS, passed through 0.22 μm filter and injected at 100 mg kg^-1. As previously described^5, tissues were fixed in 10% formalin, paraffin embedded and sectioned. Antigen retrieval was performed with Borg Decloaker RTU solution (Biocare Medical) in a pressurized Decloaking Chamber (Biocare Medical) for 3 minutes. […]"}, "[3]": {"tested_on": "Apc-null Lgr5-GFP^hi ISCs and Lgr5-GFP^low progenitors", "assay": "Orthotopic transplantation of Apc-null cells into recipient colons", "details": "10,000 cells from GW501516-treated mice; for adenoma initiation by transplanted Apc-null Lgr5-GFP^low progenitors: vehicle 0±0", "excerpt": "To test this possibility, the present inventors generated Apc^loxp/loxp; Lgr5-EGFP-IRES-CreERT2 mice to assess whether pharmacological PPAR-δ activation modifies the tumorigenic capacity of the Lgr5-GFP^low progenitors. Injection with tamoxifen leads to Apc-loss in the Lgr5-GFP^hi ISCs, which in turn generate Apc-null Lgr5-GFP^low progenitors. Four days after tamoxifen administration, we flow sorted Apc-null Lgr5-GFP^hi ISCs and Lgr5-GFP^low progenitors from vehicle and PPAR-δ agonist treated mice to assess the tumor-forming potential of these populations using separate assays (FIG. 7B): first, we examined their ability to give rise to adenomatous organoids in culture; and second, we interrogated the ability of 10,000 freshly sorted stem and progenitor cells to initiate adenomatous lesions in syngeneic recipient colons.\nApc^loxp/loxp; Lgr5-EGFP-IRES-CreERT2 mice were treated with vehicle or GW501516 for one month, and then injected with two doses of tamoxifen I.P. Four days later, Apc-null Lgr5-GFP^hi ISCs and Lgr5-GFP^low progenitors were sorted by flow cytometry, as described above. For primary cell transplantations, 10,000 Apc-null Lgr5-GFP^hi ISCs and Lgr5-GFP^low progenitors were resuspended into 90% crypt culture media (as described) and 10% Matrigel™, then transplanted into the colonic lamina propria of C57BL/6 recipient mice by optical colonoscopy using an injection needle (Hamilton Inc., part number 7750-21, 30 gauge, Kel-F Hub NDL, 14 inches length, 45 degree bevel) and specialized syringe (Hamilton Inc, part number 81242, 500 μL, Model 1750 LT Threaded Plunger). Optical colonoscopy was performed using a Karl Storz Image 1 HD Camera System, Image 1 HUB CCU, 175 Watt Xenon Light Source, and Richard Wolf 1.9 mm/9.5 Fr Integrated Telescope (part number 8626.431). Four injections were performed per mouse. Mice then underwent colonoscopy four weeks later to assess tumor formation. Colonoscopy videos and images were saved for offline analysis. […]"}},
  "note": "Entries after “also recorded” stand apart in the source; their conditions may differ.",
  "data": [
    {"smiles": "Cc1cc(SCc2sc(-c3ccc(C(F)(F)F)cc3)nc2C)ccc1OCC(=O)O", "note": "[GW501516, 2-[2-methyl-4-[[4-methyl-2-[4-(trifluoromethyl)phenyl]-1,3-thiazol-5-yl]methylsulfanyl]phenoxy]acetic acid]", "values": [
      {"measurement": "PPAR-δ target proteins in ISCs and progenitors", "setting": "[1]", "result": "strong induction; also recorded: upregulated"},
      {"measurement": "proliferation of CBC cells and transit-amplifying cells", "setting": "[2]", "result": "augmented; also recorded: enhanced the proliferation"},
      {"measurement": "adenoma initiation by transplanted Apc-null Lgr5-GFP^low progenitors", "setting": "[3]", "result": "initiated tumors"},
      {"measurement": "adenoma initiation by transplanted Apc-null Lgr5-GFP^low progenitors", "setting": "[3]; listed as PPAR-δ agonist", "result": "0.58±0.16"},
      {"measurement": "intestinal adenoma formation by transplanted Apc-null Lgr5-GFP^hi ISCs", "setting": "[3]; vehicle 0.67±0.13, listed as PPAR-δ agonist", "result": "0.61±0.19"}
    ]}
  ]
}
